≈ marks a conversion by molar mass, not a printed value.
How the values were obtained:
[1] = tested on: Acinetobacter baumannii ATCC BAA1605 (carbapenem-resistant); assay: MIC broth microdilution, A. baumannii ATCC BAA1605; type: cell-based; settings: overnight incubation; for MIC: Acinetobacter baumannii, ATCCBAA1605, MDR; for MIC Acinetobacter baumannii ATCC BAA1605 (carbapenem-resistant): MDR
Procedure: (§1) Antibacterial activity: The compounds were tested for the minimum inhibitory concentrations (MIC), which is the lowest concentration of a chemical required to inhibit visible microbial growth following overnight incubation. MIC values were determined using broth microdilution method according to the Clinical and Laboratory Standards Institute guidelines (CLSI, 2015, M07-A10). Mueller-Hinton broth was used as a culture medium in all the experiments. Exponentially growing bacterial cells were prepared in Mueller-Hinton broth at a concentration of approximately 5×10^5 CFU/mL. Two-fold serial dilutions of the test compound (8 concentrations ranged between 100-0.78 μg/mL) were tested. […] In each experiment, solvent (DMSO) was used as a negative control, un-treated control (composing of bacteria in Mueller-Hinton broth) was used as a growth control, blank (culture media alone) was used as sterility control. The 96-well microplate with the test compounds was incubated overnight at 37° C. Turbidity in wells indicated bacterial growth.
(§2) The compounds were tested on six MDR Gram-positive bacteria including three clinical isolates of methicillin-resistant Staphylococcus aureus (MRSA-1, MRSA-2 and MRSA-3) and three reference MRSA strains (ATCC33591, ATCC33592 and ATCC700699). They were also tested on three MDR Gram-negative bacteria including New Delhi metallo-beta-lactamase (NDM-1) positive, carbapenem-resistant E. coli (ATCC BAA2469), extended-spectrum beta-lactamase (ESBL) producing, colistin-resistant E. coli (CDC-AR-0346) and carbapenem-resistant Acinetobacter baumannii (ATCC BAA1605), in addition to two non-MDR bacteria from the same species, namely E. coli (ATCC 25922) Acinetobacter baumannii (ATCC 19606).

[2] = tested on: E. coli ATCC BAA2469 (NDM-1 carbapenem-resistant); assay: MIC broth microdilution, E. coli ATCC BAA2469; type: cell-based, Escherichia coli; settings: overnight incubation; for MIC: Escherichia coli, ATCCBAA2469, MDR
Procedure: as §1, §2

[3] = tested on: E. coli CDC-AR-0346 (ESBL, colistin resistant); assay: MIC broth microdilution, E. coli CDC-AR-0346; type: cell-based, Escherichia coli; settings: Escherichia coli; MDR; overnight incubation
Procedure: as §1, §2

[4] = tested on: Acinetobacter baumannii ATCC 19606; assay: MIC broth microdilution, A. baumannii ATCC 19606; type: cell-based; settings: Acinetobacter baumannii, ATCC19606; not MDR; overnight incubation
Procedure: as §1, §2

E. coli ATCC25922 = assay: MIC broth microdilution, E. coli ATCC25922; type: cell-based, Escherichia coli; settings: Escherichia coli, ATCC25922; not MDR; overnight incubation
Procedure: as §1, §2

HCT-116 = assay: MTT cell viability, HCT-116; type: cell-based; settings: Homo sapiens, colon cancer, 48 h of drug treatment, average of three experiments
From the text: (§3) Cell culture: In this study five different cancer cell lines were used, human lung carcinoma (A549), human breast adenoma (MCF-7), Cervical carcinoma (Hela), hepatocellular carcinoma (Hep3B), and colorectal adenocarcinoma (HCT-116). These cells were obtained from the European Collection of Cell Cultures (ECACC, UK). Hep3B cells were maintained in Dulbecco's Modified Eagle Medium (DMEM: Sigma-Aldrich), and the four other cell lines were maintained in Roswell Park Memorial Institute medium (RPMI, Sigma-Aldrich, St. Louis, Mo., USA), which was supplemented with 10% fetal bovine serum (FBS, Sigma-Aldrich) and 1% penicillin/streptomycin (Sigma-Aldrich). Cells were incubated all the time at 37° C. in a humidified atmosphere of 5% CO2. Cell viability studies: Cell viability was assessed using the MTT assay as described before. In brief, all cancer cell lines were seeded at a density of 4×10^4/well in 96 well flat-bottom plates. After 24 h from seeding, cells were treated with the synthesized compounds and left for an incubation period of 48 h. Upon reaching the indicated time point, the media was removed and replaced with 200 μL fresh media containing 0.5 mg/mL of MTT tetrazolium dye (Sigma-Aldrich). Cells were then incubated with MTT solution for 2 h at 37° C. The resultant formazan crystals were dissolved in 200 μl/well of DMSO and absorbance was measured at 570 nm using a microplate reader (Thermo Scientific).

A549 = assay: MTT cell viability, A549; type: cell-based; settings: Homo sapiens, lung cancer, 48 h of drug treatment, average of three experiments
From the text: as §3

HELA = assay: MTT cell viability, HELA; type: cell-based; settings: Homo sapiens, cervical cancer, 48 h of drug treatment, average of three experiments
From the text: as §3

HEP3B = assay: MTT cell viability, HEP3B; type: cell-based; settings: Homo sapiens, liver cancer, 48 h of drug treatment, average of three experiments
From the text: as §3

MCF-7 = assay: MTT cell viability, MCF-7; type: cell-based; settings: Homo sapiens, MCF7; breast cancer; 48 h of drug treatment; average of three experiments
From the text: as §3

[5] = tested on: MRSA-3 (clinical isolate); assay: MIC broth microdilution, MRSA-3; type: cell-based, Staphylococcus aureus; settings: Staphylococcus aureus, MRSA; overnight incubation, Mueller-Hinton broth; read-out: MIC MRSA-3 (clinical isolate)
Procedure: as §1, §2

MRSA-ATCC33592 = assay: MIC broth microdilution, MRSA ATCC33592; type: cell-based, Staphylococcus aureus; settings: Staphylococcus aureus; overnight incubation, Mueller-Hinton broth; read-out: MIC MRSA-ATCC33592
Procedure: as §1, §2

[6] = tested on: MRSA-1 (clinical isolate); assay: MIC broth microdilution, MRSA-1; type: cell-based, Staphylococcus aureus; settings: Staphylococcus aureus, MRSA; overnight incubation, Mueller-Hinton broth; read-out: MIC MRSA-1 (clinical isolate)
Procedure: as §1, §2

MRSA-ATCC700699 (VISA) = assay: MIC broth microdilution, MRSA ATCC700699 (VISA); type: cell-based, Staphylococcus aureus; settings: Staphylococcus aureus; strain intermediately resistant to vancomycin; overnight incubation; read-out: MIC MRSA-ATCC700699 (VISA)
Procedure: as §1, §2

[7] = tested on: MRSA-2 (clinical isolate); assay: MIC broth microdilution, MRSA-2; type: cell-based, Staphylococcus aureus; settings: Staphylococcus aureus, MRSA; overnight incubation, Mueller-Hinton broth; read-out: MIC MRSA-2 (clinical isolate)
Procedure: as §1, §2

MRSA-ATCC33591 = assay: MIC broth microdilution, MRSA ATCC33591; type: cell-based, Staphylococcus aureus; settings: Staphylococcus aureus; overnight incubation, Mueller-Hinton broth; read-out: MIC MRSA-ATCC33591
Procedure: as §1, §2

[8] = tested on: normal epithelial cells (HMEC); assay: Cell viability, normal epithelial cells; type: cell-based; settings: Homo sapiens, 48 h of drug treatment, average of three experiments
Procedure: Cell viability studies: Cell viability was assessed using the MTT assay as described before. In brief, all cancer cell lines were seeded at a density of 4×10^4/well in 96 well flat-bottom plates. After 24 h from seeding, cells were treated with the synthesized compounds and left for an incubation period of 48 h. Upon reaching the indicated time point, the media was removed and replaced with 200 μL fresh media containing 0.5 mg/mL of MTT tetrazolium dye (Sigma-Aldrich). Cells were then incubated with MTT solution for 2 h at 37° C. The resultant formazan crystals were dissolved in 200 μl/well of DMSO and absorbance was measured at 570 nm using a microplate reader (Thermo Scientific).

In the case of `CO/N=C(\C(=O)N[C@@H]1C(=O)N2C(C(=O)O)=C(COC(C)=O)CS[C@H]12)c1csc(N)n1` [Cefotaxime], the MIC [1] is reported as at least 1000 µg/mL, the “MIC Acinetobacter baumannii ATCC BAA1605 (carbapenem-resistant)” value [1] is reported as 1000 µg/mL (≈ 2200 µM) and the MIC [2] is reported as 250 µg/mL (≈ 549 µM). It also gave an MIC [3] of over 1000 µg/mL, an MIC [4] of 20 µg/mL (≈ 43.9 µM) and an MIC (E. coli ATCC25922) of 0.03 µg/mL (≈ 0.0659 µM).

`CO/N=C(\C(=O)N[C@@H]1C(=O)N2C(C(=O)O)=C(CSc3nc(=O)c(=O)[nH]n3C)CS[C@H]12)c1csc(N)n1` [Ceftriaxone] was tested, and the MIC [1] was at least 1000 µg/mL, the “MIC Acinetobacter baumannii ATCC BAA1605 (carbapenem-resistant)” value [1] was over 1000 µg/mL and the MIC [2] was 500 µg/mL (≈ 902 µM). It also gave an MIC [3] of over 1000 µg/mL, an MIC [4] of 20 µg/mL (≈ 36.1 µM) and an MIC (E. coli ATCC25922) of 0.03 µg/mL (≈ 0.0541 µM).

Work on `Fc1ccc(N/N=C2\C=C[C@@]3(CC2)CC[C@@H]2NCCc4c2n3c2ccccc42)cc1` [Compound 1b] yielded an IC50 (HCT-116) of 6.43 ± 0.03 µM, an IC50 (A549) of 10.25 ± 0.08 µM and an IC50 (HELA) of over 10 µM. For the same molecule, the IC50 (HEP3B) was 8 ± 0.07 µM and the IC50 (MCF-7) was 6.22 ± 0.16 µM.

With `Brc1ccc(N/N=C2\C=C[C@@]3(CC2)CC[C@@H]2NCCc4c2n3c2ccccc42)cc1` [Compound 1c] the IC50 (HCT-116) was 2.65 ± 0.05 µM, the MIC [5] was 3.12 µg/mL (≈ 6.77 µM) and the MIC (MRSA-ATCC33592) was 6.25 µg/mL (≈ 13.5 µM). The MIC [6] was 3.12 µg/mL (≈ 6.77 µM), the IC50 (A549) was 3.9 ± 0.04 µM and the MIC (MRSA-ATCC700699 (VISA)) was 6.25 µg/mL (≈ 13.5 µM). It also gave an MIC [7] of 3.12 µg/mL (≈ 6.77 µM), an IC50 (HELA) of 5.3 ± 0.35 µM and an MIC (MRSA-ATCC33591) of 6.25 µg/mL (≈ 13.5 µM). The IC50 (HEP3B) was 4.21 ± 0.06 µM and the IC50 (MCF-7) was 2.75 ± 0.06 µM.

Work on `Oc1ccc2c(c1)c1c3n2[C@@]2(C=C/C(=N\Nc4ccc(C(F)(F)F)cc4)CC2)CC[C@@H]3NCC1` [Compound 1i] yielded an IC50 (HCT-116) of 5.177 ± 0.02 µM, an MIC [5] of 3.12 µg/mL (≈ 6.7 µM) and an IC50 [8] of 12.7 ± 0.05 µM. The MIC [1] was 12.5 µg/mL (≈ 26.8 µM), the MIC [2] was 6.25 to 12.5 µg/mL (≈ 13.4 to 26.8 µM) and the “MIC E. coli ATCC BAA2469 (NDM-1 carbapenem-resistant)” value ([2]; MDR) was 12.5 µg/mL (≈ 26.8 µM). For the same molecule, the MIC [3] was 25 µg/mL (≈ 53.6 µM), the MIC (MRSA-ATCC33592) was 3.12 µg/mL (≈ 6.7 µM) and the MIC [6] was 1.56 µg/mL (≈ 3.34 µM). It also gave an IC50 (A549) of 8.607 ± 0.02 µM, an MIC [4] of 6.25 µg/mL (≈ 13.4 µM) and an MIC (MRSA-ATCC700699 (VISA)) of 1.56 µg/mL (≈ 3.34 µM). For the same molecule, the MIC [7] was 3.12 µg/mL (≈ 6.7 µM), the MIC (E. coli ATCC25922) was 12.5 µg/mL (≈ 26.8 µM) and the IC50 (HELA) was 4.08 ± 0.12 µM. The MIC (MRSA-ATCC33591) was 3.12 µg/mL (≈ 6.7 µM), the IC50 (HEP3B) was 5.132 ± 0.04 µM and the IC50 (MCF-7) was 5.61 ± 0.08 µM.

With `COc1ccc2c3c4n(c2c1)[C@@]1(C=C/C(=N\Nc2ccc(C(F)(F)F)cc2)CC1)CC[C@@H]4NCC3` [Compound 1j] the IC50 (HCT-116) was 2.3 ± 0.04 µM, the MIC [5] was 3.12 µg/mL (≈ 6.5 µM) and the IC50 [8] was 10.77 ± 0.05 µM. For the same molecule, the MIC (MRSA-ATCC33592) was 3.12 µg/mL (≈ 6.5 µM), the MIC [6] was 1.56 µg/mL (≈ 3.25 µM) and the IC50 (A549) was 5.61 ± 0.12 µM. It also gave an MIC (MRSA-ATCC700699 (VISA)) of 3.12 µg/mL (≈ 6.5 µM), an MIC [7] of 3.12 µg/mL (≈ 6.5 µM) and an IC50 (HELA) of 4.601 ± 0.03 µM. The MIC (MRSA-ATCC33591) was 3.12 µg/mL (≈ 6.5 µM), the IC50 (HEP3B) was 2.88 ± 0.14 µM and the IC50 (MCF-7) was 3 ± 2.4 µM.
